Experimental data: US12448391B2, “Bicyclic derivatives for treating endoparasites” (Elanco Tiergesundheit AG, priority 2019, dated 2025)

Experiments:
H. contortus larvae = experiment: H. contortus Larval Development Assay (Hc LDA); conditions: Haemonchus contortus, read-out: EC50 (motility inhibition)
Description: Ruminant Gastrointestinal (H. contortus Larval Development Assay (Hc LDA)):
H.c. eggs isolated from lamb fecal matter are allowed to hatch overnight. Test compounds are diluted in DMSO and added to a 96-well plate containing appropriate media. H.c. larvae are added to each well and plates are incubated for the desired time(s). Motility is assessed using an LCD camera imaging system. Percent motility inhibition values are generated relative to the average of the DMSO-only wells.

D. immitis microfilariae = experiment: Dog heart worm microfilariae motility assay; assay type: cell-based; conditions: Dirofilaria immitis, read-out: EC50 (motility inhibition)

Row | SMILES | EC50 (H. contortus larvae) | EC50 (D. immitis microfilariae)
1 | CN(C)c1c(C(=O)NN2CCOc3ccccc32)cnc2c(-c3cc(Cl)cc(Cl)c3)nccc12 [Example 2.1, 8-(3,5-dichlorophenyl)-N-(2,3-dihydro-1,4-benzoxazin-4-yl)-4-(dimethylamino)-1,7-naphthyridine-3-carboxamide] | < 1 µg/mL | < 0.1 µg/mL
2 | CN(C)c1c(C(=O)NN2CCCc3ccccc32)cnc2c(-c3cc(Cl)cc(Cl)c3)nccc12 [Example 2.2, 8-(3,5-dichlorophenyl)-N-(3,4-dihydro-2H-quinolin-1-yl)-4-(dimethylamino)-1,7-naphthyridine-3-carboxamide] | < 1 µg/mL | < 0.1 µg/mL
3 | O=C(NN1CCOc2ccccc21)c1cnc2c(-c3cc(Cl)cc(Cl)c3)nccc2c1N1CCOCC1 [Example 2.3, 8-(3,5-dichlorophenyl)-N-(2,3-dihydro-1,4-benzoxazin-4-yl)-4-morpholino-1,7-naphthyridine-3-carboxamide] | < 1 µg/mL | < 0.1 µg/mL
4 | O=C(NN1CCOc2ccccc21)c1cnc2c(-c3cc(F)cc(F)c3F)nccc2c1N1CCOCC1 [Example 2.4, N-(2,3-dihydro-1,4-benzoxazin-4-yl)-4-morpholino-8-(2,3,5-trifluorophenyl)-1,7-naphthyridine-3-carboxamide] | < 1 µg/mL | < 0.1 µg/mL
5 | CON(C)c1c(C(=O)NN2CCOc3ccccc32)cnc2c(-c3cc(F)cc(F)c3F)nccc12 [Example 2.5, N-(2,3-dihydro-1,4-benzoxazin-4-yl)-4-[methoxy(methyl)amino]-8-(2,3,5-trifluorophenyl)-1,7-naphthyridine-3-carboxamide] | < 1 µg/mL | < 0.1 µg/mL
6 | O=C(NN1CCOc2ccccc21)c1cnc2c(-c3cc(Cl)cc(C(F)(F)F)c3)nccc2c1N1CCOCC1 [Example 2.6, 8-[3-chloro-5-(trifluoromethyl)phenyl]-N-(2,3-dihydro-1,4-benzoxazin-4-yl)-4-morpholino-1,7-naphthyridine-3-carboxamide] | < 1 µg/mL | < 0.1 µg/mL
7 | O=C(NN1CCOc2ccccc21)c1cnc2c(-c3cccc(Cl)c3Cl)nccc2c1N1CCOCC1 [Example 2.7, N-(2,3-dihydro-1,4-benzoxazin-4-yl)-4-morpholino-8-(2,3-dichlorophenyl)-1,7-naphthyridine-3-carboxamide] | – | < 0.1 µg/mL
8 | O=C(NN1CCOc2ccccc21)c1cnc2c(-c3cc(Cl)c(F)c(Cl)c3)nccc2c1N1CCOCC1 [Example 2.8, 8-(3,5-dichloro-4-fluoro-phenyl)-N-(2,3-dihydro-1,4-benzoxazin-4-yl)-4-morpholino-1,7-naphthyridine-3-carboxamide] | < 1 µg/mL | < 0.1 µg/mL
9 | CN(C)c1c(C(=O)NN2CCOc3ccccc32)cnc2c(-c3cc(Cl)cc(Cl)c3)ccnc12 [Example 3.1, 8-(3,5-dichlorophenyl)-N-(2,3-dihydro-1,4-benzoxazin-4-yl)-4-(dimethylamino)-1,5-naphthyridine-3-carboxamide] | < 1 µg/mL | < 0.1 µg/mL
10 | CN(C)c1c(C(=O)NN2CCOc3ccccc32)cnc2c(-c3cccc(Cl)c3Cl)ccnc12 [Example 3.2, 8-(2,3-dichlorophenyl)-N-(2,3-dihydro-1,4-benzoxazin-4-yl)-4-(dimethylamino)-1,5-naphthyridine-3-carboxamide] | < 1 µg/mL | < 0.1 µg/mL
11 | O=C(NN1CCOc2ccccc21)c1cnc2c(-c3cc(Cl)cc(Cl)c3)ccnc2c1N1CCOCC1 [Example 3.3, 8-(3,5-dichlorophenyl)-N-(2,3-dihydro-1,4-benzoxazin-4-yl)-4-morpholino-1,5-naphthyridine-3-carboxamide] | < 1 µg/mL | < 0.1 µg/mL
12 | O=C(NN1CCOc2ccccc21)c1cnc2c(-c3cc(F)cc(F)c3F)ccnc2c1N1CCOCC1 [Example 3.4, N-(2,3-dihydro-1,4-benzoxazin-4-yl)-4-morpholino-8-(2,3,5-trifluorophenyl)-1,5-naphthyridine-3-carboxamide] | < 1 µg/mL | < 0.1 µg/mL
13 | CN(C)c1c(C(=O)NN2CCOc3ccccc32)ccc2c(-c3cc(Cl)cc(Cl)c3)cccc12 [Example 4.1, 5-(3,5-dichlorophenyl)-N-(2,3-dihydro-1,4-benzoxazin-4-yl)-1-(dimethylamino)naphthalene-2-carboxamide] | < 1 µg/mL | < 0.1 µg/mL
14 | CN(C)c1c(C(=O)NN2CCOc3ccccc32)cnc2c(-c3cc(Cl)cc(Cl)c3)cccc12 [Example 5.1, 8-(3,5-dichlorophenyl)-N-(2,3-dihydro-4H-benzo[b][1,4]oxazin-4-yl)-4-(dimethylamino)quinoline-3-carboxamide] | < 1 µg/mL | < 0.1 µg/mL
15 | O=C(NN1CCOc2ccccc21)c1cnc2c(-c3cccc(Cl)c3Cl)cccc2c1N1CCOCC1 [Example 5.2, 8-(2,3-dichlorophenyl)-N-(2,3-dihydro-1,4-benzoxazin-4-yl)-4-morpholino-quinoline-3-carboxamide] | < 1 µg/mL | < 0.1 µg/mL
16 | O=C(NN1CCOc2ccccc21)c1cnc2c(-c3cc(Cl)cc(Cl)c3)cccc2c1N1CCOCC1 [Example 5.3, 8-(3,5-dichlorophenyl)-N-(2,3-dihydro-1,4-benzoxazin-4-yl)-4-morpholino-quinoline-3-carboxamide] | < 1 µg/mL | < 0.1 µg/mL

Row | SMILES | EC50 (H. contortus larvae) | EC50 (D. immitis microfilariae)
17 | O=C(NN1CCOc2ccccc21)c1cnc2c(-c3cc(F)cc(F)c3F)c(F)ccc2c1N1CCOCC1 [Example 5.4, N-(2,3-dihydro-1,4-benzoxazin-4-yl)-7-fluoro-4-morpholino-8-(2,3,5-trifluorophenyl)quinoline-3-carboxamide] | < 1 µg/mL | < 0.1 µg/mL
18 | O=C(NN1CCOc2ccccc21)c1cnc2c(-c3cc(F)cc(F)c3F)cccc2c1N1CCOCC1 [Example 5.6, N-(2,3-dihydro-1,4-benzoxazin-4-yl)-4-morpholino-8-(2,3,5-trifluorophenyl)quinoline-3-carboxamide] | < 1 µg/mL | < 0.1 µg/mL
19 | O=C(NN1CCOc2ccccc21)c1cnc2c(-c3cc(Cl)cc(Cl)c3)c(F)ccc2c1N1CCOCC1 [Example 5.7, 8-(3,5-dichlorophenyl)-N-(2,3-dihydro-1,4-benzoxazin-4-yl)-7-fluoro-4-morpholino-quinoline-3-carboxamide] | < 1 µg/mL | < 0.1 µg/mL
20 | O=C(NN1CCOc2ccccc21)c1cnc2c(-c3cc(F)cc(F)c3)c(F)ccc2c1N1CCOCC1 [Example 5.8, 8-(3,5-difluorophenyl)-N-(2,3-dihydro-1,4-benzoxazin-4-yl)-7-fluoro-4-morpholino-quinoline-3-carboxamide] | < 1 µg/mL | < 0.1 µg/mL
21 | O=C(NN1CCOc2ccccc21)c1cnc2c(-c3cc(Cl)nc(C(F)(F)F)c3)cccc2c1N1CCOCC1 [Example 5.11, 8-[2-chloro-6-(trifluoromethyl)-4-pyridyl]-N-(2,3-dihydro-1,4-benzoxazin-4-yl)-4-morpholino-quinoline-3-carboxamide] | < 1 µg/mL | < 0.1 µg/mL
22 | O=C(NN1CCOc2ccccc21)c1cnc2c(-c3cc(Cl)nc(Cl)c3)cccc2c1N1CCOCC1 [Example 5.12, 8-(2,6-dichloro-4-pyridyl)-N-(2,3-dihydro-1,4-benzoxazin-4-yl)-4-morpholino-quinoline-3-carboxamide] | < 1 µg/mL | < 0.1 µg/mL
23 | O=C(NN1CCOc2ccccc21)c1cnc2c(-c3cc(Cl)cc(Cl)c3F)cccc2c1N1CCOCC1 [Example 5.13, 8-(3,5-dichloro-2-fluoro-phenyl)-N-(2,3-dihydro-1,4-benzoxazin-4-yl)-4-morpholino-quinoline-3-carboxamide] | < 1 µg/mL | < 0.1 µg/mL
24 | O=C(NN1CCOc2ccccc21)c1cnc2c(-c3cc(Cl)cnc3F)cccc2c1N1CCOCC1 [Example 5.14, 8-(5-chloro-2-fluoro-3-pyridyl)-N-(2,3-dihydro-1,4-benzoxazin-4-yl)-4-morpholino-quinoline-3-carboxamide] | < 1 µg/mL | < 0.1 µg/mL
25 | O=C(NN1CCOc2ccccc21)c1cnc2c(-c3cc(F)cc(F)c3F)cccc2c1N1CCS(=O)(=O)CC1 [Example 5.15, N-(2,3-dihydro-1,4-benzoxazin-4-yl)-4-(1,1-dioxo-1,4-thiazinan-4-yl)-8-(2,3,5-trifluorophenyl)quinoline-3-carboxamide] | < 1 µg/mL | < 0.1 µg/mL
26 | O=C(NN1CCOc2ccccc21)c1cnc2c(-c3cc(F)c(F)cc3F)cccc2c1N1CCOCC1 [Example 5.16, N-(2,3-dihydro-1,4-benzoxazin-4-yl)-4-morpholino-8-(2,4,5-trifluorophenyl)quinoline-3-carboxamide] | < 1 µg/mL | < 0.1 µg/mL
27 | O=C(NN1CCOc2ccccc21)c1cnc2c(-c3cncc(Cl)n3)cccc2c1N1CCOCC1 [Example 5.17, 8-(6-chloropyrazin-2-yl)-N-(2,3-dihydro-1,4-benzoxazin-4-yl)-4-morpholino-quinoline-3-carboxamide] | < 1 µg/mL | < 0.1 µg/mL
28 | O=C(NN1CCOc2ccccc21)c1cnc2c(-c3cncc(Cl)c3Cl)cccc2c1N1CCOCC1 [Example 5.18, 8-(4,5-dichloro-3-pyridyl)-N-(2,3-dihydro-1,4-benzoxazin-4-yl)-4-morpholino-quinoline-3-carboxamide] | < 1 µg/mL | < 0.1 µg/mL
29 | O=C(NN1CCOc2ccccc21)c1cnc2c(-c3cc(Cl)cc(F)c3F)cccc2c1N1CCOCC1 [Example 5.19, 8-(5-chloro-2,3-difluoro-phenyl)-N-(2,3-dihydro-1,4-benzoxazin-4-yl)-4-morpholino-quinoline-3-carboxamide] | < 1 µg/mL | < 0.1 µg/mL
30 | O=C(NN1CCOc2ccccc21)c1cnc2c(-c3cc(F)c(F)c(F)c3F)cccc2c1N1CCOCC1 [Example 5.20, N-(2,3-dihydro-1,4-benzoxazin-4-yl)-4-morpholino-8-(2,3,4,5-tetrafluorophenyl)quinoline-3-carboxamide] | < 1 µg/mL | < 0.1 µg/mL
31 | O=C(NN1CCOc2ccccc21)c1cnc2c(-c3cncc(F)c3Cl)cccc2c1N1CCOCC1 [Example 5.21, 8-(4-chloro-5-fluoro-3-pyridyl)-N-(2,3-dihydro-1,4-benzoxazin-4-yl)-4-morpholino-quinoline-3-carboxamide] | < 1 µg/mL | < 0.1 µg/mL
